# Data taken from patent US9420782B2, “Pesticidal composition in the form of aqueous emulsion” (Sumitomo Chemical Company, Limited, priority 2012, dated 2016).
# Assay: Retention rate of the agriculturally active ingredient after xenon light irradiation (film on glass petri dish)
# Format: physicochemical
# Settings: xenon light (290 nm cutoff), 0.68 W/m^2 at 340 nm, 35° C., neat active ingredient air-dried on petri dish
# Procedure: A method for the calculation of a retention rate of the agriculturally active ingredient defined above is more specifically as follows. First, 250 mg of the agriculturally active ingredient is dissolved in 50 mL of a solvent such as acetone, which can sufficiently dissolve the agriculturally active ingredient and also has high volatility, and 1 mL of the solution is added to a glass petri dish having a diameter of 6 cm using a one-mark pipette, spread entirely over the petri dish, and then air-dried at room temperature. The petri dish is covered with a lid made of quartz glass and then set in a weathering tester (manufactured by Q-Lab Corporation under the trade name of Q-SUN Xenon Accelerated Weathering Tester, Model Xe-3) equipped with a borosilicate filter (manufactured by Q-Lab Corporation under the trade name of Daylight-BB Optical Filter) attached thereto. After irradiation with xenon light under the conditions of an intensity at 340 nm of 0.68 W/m^2 and a temperature of 35° C. (35° C. as measured by an insulated black panel thermometer) for a predetermined time, the amount of the agriculturally active ingredient remaining on the petri dish is determined by a known determination method such as high-performance liquid chromatography. […]
structure (smiles),measurement,setting,value
"CNC(=O)C(OC)c1ccccc1COc1cc(C)ccc1C (stereo not drawn) [compound A, 2-[(2,5-dimethylphenoxy)methyl]-α-methoxy-N-methyl-benzeneacetamide]",retention rate after irradiation with xenon light,8 hours,93.1%
same,retention rate after irradiation with xenon light,56 hours,50.3%
